From ChEMBL document CHEMBL3822439, “Discovery of a novel 6,7-disubstituted-4-(2-fluorophenoxy)quinolines bearing 1,2,3-triazole-4-carboxamide moiety as potent c-Met kinase inhibitors” (Eur J Med Chem, 2016)

Legend:
[1] = Cytotoxicity against human MKN45 cells measured after 72 hrs by MTT assay; assay type: functional, cell-based; conditions: MKN-45, 72 h
HT-29 [2] = assay: Cytotoxicity against human HT-29 cells measured after 72 hrs by MTT assay; conditions: HT-29, 72 h
A549 [3] = assay: Cytotoxicity against human A549 cells measured after 72 hrs by MTT assay; assay type: functional, cell-based; conditions: A549, 72 h
[4] = Cytotoxicity against human H460 cells measured after 72 hrs by MTT assay; conditions: NCI-H460, 72 h
[5] = target: Hepatocyte growth factor receptor (Homo sapiens, UniProt P08581); assay: Inhibition of c-Met (unknown origin) using poly (Glu, Tyr) 4:1 as substrate incubated for 30 mins by HTRF assay
Sequence of Hepatocyte growth factor receptor (P08581 whole entry): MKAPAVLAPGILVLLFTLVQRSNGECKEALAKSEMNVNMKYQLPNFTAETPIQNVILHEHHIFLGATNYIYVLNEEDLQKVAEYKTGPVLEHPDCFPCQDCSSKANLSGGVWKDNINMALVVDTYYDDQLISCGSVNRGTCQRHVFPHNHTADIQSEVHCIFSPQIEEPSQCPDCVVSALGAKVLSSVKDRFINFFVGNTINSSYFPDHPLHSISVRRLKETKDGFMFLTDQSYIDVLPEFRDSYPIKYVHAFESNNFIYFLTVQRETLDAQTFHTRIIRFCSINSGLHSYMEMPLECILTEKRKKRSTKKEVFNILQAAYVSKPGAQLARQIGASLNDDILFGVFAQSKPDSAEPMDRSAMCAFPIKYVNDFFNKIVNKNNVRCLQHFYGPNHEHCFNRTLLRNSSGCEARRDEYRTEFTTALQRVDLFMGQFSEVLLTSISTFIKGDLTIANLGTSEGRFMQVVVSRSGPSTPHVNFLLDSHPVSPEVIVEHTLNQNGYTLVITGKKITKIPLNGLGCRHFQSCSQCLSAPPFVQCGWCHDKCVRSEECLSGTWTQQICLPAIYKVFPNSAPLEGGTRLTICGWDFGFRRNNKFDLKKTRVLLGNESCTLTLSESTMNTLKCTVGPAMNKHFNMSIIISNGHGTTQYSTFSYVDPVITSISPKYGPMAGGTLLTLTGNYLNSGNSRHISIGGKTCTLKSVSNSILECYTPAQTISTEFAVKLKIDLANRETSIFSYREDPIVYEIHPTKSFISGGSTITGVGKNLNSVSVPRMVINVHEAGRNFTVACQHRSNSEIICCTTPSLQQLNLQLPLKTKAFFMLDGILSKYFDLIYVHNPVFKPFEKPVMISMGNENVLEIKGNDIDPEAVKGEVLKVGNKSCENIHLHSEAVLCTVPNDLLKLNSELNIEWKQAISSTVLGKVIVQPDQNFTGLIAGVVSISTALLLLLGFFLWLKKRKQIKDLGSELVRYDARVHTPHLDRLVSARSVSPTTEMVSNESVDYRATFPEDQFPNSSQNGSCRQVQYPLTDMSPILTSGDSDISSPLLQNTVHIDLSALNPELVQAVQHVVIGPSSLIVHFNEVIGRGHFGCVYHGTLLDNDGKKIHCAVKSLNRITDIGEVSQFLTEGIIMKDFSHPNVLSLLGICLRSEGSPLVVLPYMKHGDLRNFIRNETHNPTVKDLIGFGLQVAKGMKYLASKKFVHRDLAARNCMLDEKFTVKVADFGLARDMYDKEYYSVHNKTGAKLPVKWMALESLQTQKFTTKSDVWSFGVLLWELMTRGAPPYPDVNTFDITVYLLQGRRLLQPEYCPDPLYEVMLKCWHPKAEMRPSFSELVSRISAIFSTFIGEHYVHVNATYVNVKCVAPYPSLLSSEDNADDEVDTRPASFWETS

[6] = target: Vascular endothelial growth factor receptor 2 (Homo sapiens, UniProt P35968); assay: Inhibition of VEGFR2 (unknown origin) using poly (Glu, Tyr) 4:1 as substrate incubated for 30 mins by HTRF assay
[7] = target: Macrophage-stimulating protein receptor (Homo sapiens, UniProt Q04912); assay: Inhibition of Ron (unknown origin) using poly (Glu, Tyr) 4:1 as substrate incubated for 30 mins by HTRF assay
Sequence of Macrophage-stimulating protein receptor (Q04912 25-304 limits assumed): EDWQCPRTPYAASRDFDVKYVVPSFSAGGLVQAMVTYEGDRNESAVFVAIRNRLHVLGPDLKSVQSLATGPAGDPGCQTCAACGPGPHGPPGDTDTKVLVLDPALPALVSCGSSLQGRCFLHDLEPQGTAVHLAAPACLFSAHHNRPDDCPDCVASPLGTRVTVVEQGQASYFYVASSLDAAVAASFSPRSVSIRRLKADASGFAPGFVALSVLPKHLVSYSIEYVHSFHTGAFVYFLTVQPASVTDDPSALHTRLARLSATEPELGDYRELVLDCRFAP
Sequence of Macrophage-stimulating protein receptor (Q04912 310-1400 limits assumed): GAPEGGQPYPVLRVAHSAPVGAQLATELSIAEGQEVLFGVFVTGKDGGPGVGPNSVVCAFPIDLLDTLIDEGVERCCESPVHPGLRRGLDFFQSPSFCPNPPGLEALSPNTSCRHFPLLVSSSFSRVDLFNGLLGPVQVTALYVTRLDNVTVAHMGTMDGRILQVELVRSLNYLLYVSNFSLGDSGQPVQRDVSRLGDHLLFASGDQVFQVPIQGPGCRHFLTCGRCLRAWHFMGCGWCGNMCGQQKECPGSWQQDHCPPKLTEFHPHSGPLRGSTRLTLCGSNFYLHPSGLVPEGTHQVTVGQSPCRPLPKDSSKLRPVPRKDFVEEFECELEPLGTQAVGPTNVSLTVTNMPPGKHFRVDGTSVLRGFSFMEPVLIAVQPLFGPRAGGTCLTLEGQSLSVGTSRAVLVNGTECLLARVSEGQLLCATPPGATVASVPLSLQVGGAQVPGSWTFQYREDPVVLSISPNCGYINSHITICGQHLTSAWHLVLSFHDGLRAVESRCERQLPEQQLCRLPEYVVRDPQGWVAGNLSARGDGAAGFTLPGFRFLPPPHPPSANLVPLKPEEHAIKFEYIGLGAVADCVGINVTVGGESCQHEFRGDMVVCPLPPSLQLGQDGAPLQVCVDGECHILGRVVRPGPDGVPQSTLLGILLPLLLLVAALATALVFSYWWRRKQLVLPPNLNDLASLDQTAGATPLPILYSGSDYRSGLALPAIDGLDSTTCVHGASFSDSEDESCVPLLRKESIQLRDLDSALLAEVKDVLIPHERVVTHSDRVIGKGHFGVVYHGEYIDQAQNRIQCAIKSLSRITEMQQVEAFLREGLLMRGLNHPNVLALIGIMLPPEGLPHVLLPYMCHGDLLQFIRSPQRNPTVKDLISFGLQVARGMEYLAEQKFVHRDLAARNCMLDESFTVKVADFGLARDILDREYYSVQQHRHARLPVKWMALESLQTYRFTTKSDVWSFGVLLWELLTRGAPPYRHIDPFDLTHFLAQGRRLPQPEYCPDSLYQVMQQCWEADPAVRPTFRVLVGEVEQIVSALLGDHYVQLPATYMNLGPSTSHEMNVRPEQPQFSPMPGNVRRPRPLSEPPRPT

HT-29 [8] = assay: Potency index, ratio of foretinib IC50 to compound IC50 for human HT-29 cells; assay type: functional
MKN-45 = assay: Potency index, ratio of foretinib IC50 to compound IC50 for human MKN45 cells; assay type: functional
[9] = Potency index, ratio of foretinib IC50 to compound IC50 for human H460 cells; assay type: functional
A549 [10] = assay: Potency index, ratio of foretinib IC50 to compound IC50 for human A549 cells; assay type: functional
[11] = target: Mast/stem cell growth factor receptor Kit (Homo sapiens, UniProt P10721); assay: Inhibition of c-kit (unknown origin) using poly (Glu, Tyr) 4:1 as substrate incubated for 30 mins by HTRF assay
Sequence of Mast/stem cell growth factor receptor Kit (P10721 whole entry): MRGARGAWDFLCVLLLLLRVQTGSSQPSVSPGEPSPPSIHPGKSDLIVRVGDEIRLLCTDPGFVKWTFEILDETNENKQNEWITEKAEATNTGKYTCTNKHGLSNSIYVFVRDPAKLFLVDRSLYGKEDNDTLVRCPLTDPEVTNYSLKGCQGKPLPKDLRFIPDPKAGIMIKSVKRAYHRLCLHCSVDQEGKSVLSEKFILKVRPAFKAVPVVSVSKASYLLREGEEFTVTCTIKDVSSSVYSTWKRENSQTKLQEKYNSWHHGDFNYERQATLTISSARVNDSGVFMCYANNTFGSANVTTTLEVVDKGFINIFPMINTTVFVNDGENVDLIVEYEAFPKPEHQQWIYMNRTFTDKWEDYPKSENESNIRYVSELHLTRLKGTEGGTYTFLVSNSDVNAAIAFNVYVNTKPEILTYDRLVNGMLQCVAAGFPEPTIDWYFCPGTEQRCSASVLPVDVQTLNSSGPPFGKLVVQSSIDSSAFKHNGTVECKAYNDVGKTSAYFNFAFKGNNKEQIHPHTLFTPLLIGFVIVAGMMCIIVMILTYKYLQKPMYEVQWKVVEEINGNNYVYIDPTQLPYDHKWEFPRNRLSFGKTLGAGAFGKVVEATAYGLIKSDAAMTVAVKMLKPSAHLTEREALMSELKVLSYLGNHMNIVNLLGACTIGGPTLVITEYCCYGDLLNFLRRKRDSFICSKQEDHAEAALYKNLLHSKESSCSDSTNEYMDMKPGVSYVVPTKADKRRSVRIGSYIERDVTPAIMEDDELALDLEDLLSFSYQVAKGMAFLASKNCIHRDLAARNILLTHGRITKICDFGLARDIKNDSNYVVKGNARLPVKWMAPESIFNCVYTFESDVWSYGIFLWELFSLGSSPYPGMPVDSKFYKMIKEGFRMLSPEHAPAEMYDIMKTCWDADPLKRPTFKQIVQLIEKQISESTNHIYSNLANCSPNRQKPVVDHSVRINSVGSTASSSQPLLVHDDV

[12] = target: T1, Receptor-type tyrosine-protein kinase FLT3 (Homo sapiens, UniProt P36888); assay: Inhibition of FLT3 (unknown origin) using poly (Glu, Tyr) 4:1 as substrate incubated for 30 mins by HTRF assay
T1 sequence (P36888 whole entry): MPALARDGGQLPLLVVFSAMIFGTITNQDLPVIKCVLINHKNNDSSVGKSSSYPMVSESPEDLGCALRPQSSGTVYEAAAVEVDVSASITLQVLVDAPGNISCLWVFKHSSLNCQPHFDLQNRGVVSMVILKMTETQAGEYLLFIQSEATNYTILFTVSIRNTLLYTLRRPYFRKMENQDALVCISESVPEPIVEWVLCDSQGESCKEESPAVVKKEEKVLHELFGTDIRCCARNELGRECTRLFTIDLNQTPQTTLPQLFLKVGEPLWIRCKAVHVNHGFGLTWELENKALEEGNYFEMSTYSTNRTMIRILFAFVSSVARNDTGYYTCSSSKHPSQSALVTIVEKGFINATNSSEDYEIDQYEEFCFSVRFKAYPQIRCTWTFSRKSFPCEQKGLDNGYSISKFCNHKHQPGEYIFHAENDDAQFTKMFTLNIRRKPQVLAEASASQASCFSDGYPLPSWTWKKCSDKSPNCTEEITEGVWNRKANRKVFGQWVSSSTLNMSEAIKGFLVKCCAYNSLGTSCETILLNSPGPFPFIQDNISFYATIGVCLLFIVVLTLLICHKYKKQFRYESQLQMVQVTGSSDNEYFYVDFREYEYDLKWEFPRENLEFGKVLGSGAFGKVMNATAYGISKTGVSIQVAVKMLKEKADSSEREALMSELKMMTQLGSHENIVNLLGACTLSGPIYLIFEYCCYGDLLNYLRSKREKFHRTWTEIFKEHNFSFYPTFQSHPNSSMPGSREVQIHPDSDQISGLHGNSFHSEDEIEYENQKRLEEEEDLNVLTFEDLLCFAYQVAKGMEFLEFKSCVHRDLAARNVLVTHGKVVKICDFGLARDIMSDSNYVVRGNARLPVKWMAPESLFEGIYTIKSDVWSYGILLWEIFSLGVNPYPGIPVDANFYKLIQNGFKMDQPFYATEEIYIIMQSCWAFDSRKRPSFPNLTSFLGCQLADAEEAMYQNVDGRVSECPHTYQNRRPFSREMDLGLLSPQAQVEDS

[13] = target: Epidermal growth factor receptor (Homo sapiens, UniProt P00533); assay: Inhibition of EGFR (unknown origin) using poly (Glu, Tyr) 4:1 as substrate incubated for 30 mins by HTRF assay
Sequence of Epidermal growth factor receptor (P00533 whole entry): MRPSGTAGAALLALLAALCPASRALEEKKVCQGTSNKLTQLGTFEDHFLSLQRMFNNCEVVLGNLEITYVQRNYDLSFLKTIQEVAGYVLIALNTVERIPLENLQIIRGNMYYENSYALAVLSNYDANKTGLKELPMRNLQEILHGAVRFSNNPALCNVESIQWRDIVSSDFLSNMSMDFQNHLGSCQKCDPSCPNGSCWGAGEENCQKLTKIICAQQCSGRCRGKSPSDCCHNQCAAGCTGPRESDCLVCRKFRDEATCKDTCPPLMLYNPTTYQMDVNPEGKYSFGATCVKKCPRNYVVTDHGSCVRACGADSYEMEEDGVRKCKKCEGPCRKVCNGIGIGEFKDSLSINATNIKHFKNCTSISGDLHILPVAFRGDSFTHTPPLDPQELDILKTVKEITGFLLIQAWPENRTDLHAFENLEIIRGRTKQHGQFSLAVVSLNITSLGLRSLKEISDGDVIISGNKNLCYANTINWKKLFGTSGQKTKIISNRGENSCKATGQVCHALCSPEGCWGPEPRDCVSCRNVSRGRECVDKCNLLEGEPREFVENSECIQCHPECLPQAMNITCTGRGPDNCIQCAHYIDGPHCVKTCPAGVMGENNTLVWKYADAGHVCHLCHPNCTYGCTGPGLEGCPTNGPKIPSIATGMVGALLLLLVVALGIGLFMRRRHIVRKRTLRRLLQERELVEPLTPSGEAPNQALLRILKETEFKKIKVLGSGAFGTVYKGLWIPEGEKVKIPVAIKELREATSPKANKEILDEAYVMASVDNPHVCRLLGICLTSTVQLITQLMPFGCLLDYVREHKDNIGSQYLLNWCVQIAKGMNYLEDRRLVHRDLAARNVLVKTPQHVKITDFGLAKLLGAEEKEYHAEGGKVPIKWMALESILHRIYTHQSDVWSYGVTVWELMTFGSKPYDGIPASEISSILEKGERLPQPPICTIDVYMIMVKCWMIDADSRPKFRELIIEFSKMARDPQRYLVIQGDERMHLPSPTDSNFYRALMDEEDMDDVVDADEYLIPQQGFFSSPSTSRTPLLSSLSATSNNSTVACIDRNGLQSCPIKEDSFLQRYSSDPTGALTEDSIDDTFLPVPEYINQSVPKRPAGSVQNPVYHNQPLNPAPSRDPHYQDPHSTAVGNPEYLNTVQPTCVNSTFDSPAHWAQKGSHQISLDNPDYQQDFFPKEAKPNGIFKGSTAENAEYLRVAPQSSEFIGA

Structure (SMILES)	IC50 [1]	IC50 (HT-29 [2])	IC50 (A549 [3])	IC50 [4]	further results
COc1cc2c(Oc3ccc(NC(=O)c4cn(-c5c(Cl)cccc5Cl)nn4)cc3F)ccnc2cc1OCCCN1CCC(C)CC1	120 nM	1390 nM	320 nM	270 nM	–
COc1cc2c(Oc3ccc(NC(=O)c4cn(-c5c(C)cccc5C)nn4)cc3F)ccnc2cc1OCCCN1CCC(C)CC1	4310 nM	2450 nM	3340 nM	2360 nM	–
COc1cc2c(Oc3ccc(NC(=O)c4cn(-c5ccccc5C)nn4)cc3F)ccnc2cc1OCCCN1CCC(C)CC1	–	2380 nM	3500 nM	2730 nM	–
COc1cc2c(Oc3ccc(NC(=O)c4cn(-c5ccccc5C)nn4)cc3F)ccnc2cc1OCCCN1CCCC1	–	1200 nM	900 nM	1260 nM	–
COc1cc2c(Oc3ccc(NC(=O)c4cn(-c5ccccc5Cl)nn4)cc3F)ccnc2cc1OCCCN1CCCC1	70 nM	150 nM	330 nM	190 nM	–
COc1cc2c(Oc3ccc(NC(=O)c4cn(-c5c(Cl)cccc5Cl)nn4)cc3F)ccnc2cc1OCCCN1CCCCC1	–	240 nM	150 nM	280 nM	–
COc1cc2c(Oc3ccc(NC(=O)c4cn(-c5c(Cl)cccc5Cl)nn4)cc3F)ccnc2cc1OCCCN1CCOCC1	110 nM	270 nM	–	290 nM	–
COc1cc2c(Oc3ccc(NC(=O)c4cn(-c5ccccc5)nn4)cc3F)ccnc2cc1OCCCN1CCCC1	260 nM	180 nM	360 nM	280 nM	–
COc1cc2c(Oc3ccc(NC(=O)c4cn(-c5ccccc5Cl)nn4)cc3F)ccnc2cc1OCCCN1CCOCC1	270 nM	240 nM	530 nM	210 nM	–
COc1cc2c(Oc3ccc(NC(=O)c4cn(-c5ccccc5F)nn4)cc3F)ccnc2cc1OCCCN1CCN(C)CC1	140 nM	300 nM	250 nM	230 nM	–
COc1cc2c(Oc3ccc(NC(=O)c4cn(-c5ccc(Br)cc5)nn4)cc3F)ccnc2cc1OCCCN1CCOCC1	90 nM	260 nM	180 nM	130 nM	–
COc1cc2c(Oc3ccc(NC(=O)c4cn(-c5ccc(F)c(F)c5)nn4)cc3F)ccnc2cc1OCCCN1CCC(C)CC1	1290 nM	810 nM	1460 nM	260 nM	–
COc1cc2c(Oc3ccc(NC(=O)c4cn(-c5ccccc5F)nn4)cc3F)ccnc2cc1OCCCN1CCCCC1	1290 nM	290 nM	2770 nM	210 nM	–
COc1cc2c(Oc3ccc(NC(=O)c4cn(-c5c(C)cccc5C)nn4)cc3F)ccnc2cc1OCCCN1CCCCC1	2140 nM	3690 nM	–	3520 nM	–
COc1cc2c(Oc3ccc(NC(=O)c4cn(-c5ccccc5Cl)nn4)cc3F)ccnc2cc1OCCCN1CCCCC1	30 nM	100 nM	70 nM	180 nM	IC50 [5]: 2.27 nM; IC50 [6]: 96.7 nM; IC50 [7]: 346 nM; Ratio IC50 (HT-29 [8]): 1.9; Ratio IC50 (MKN-45): 1.1; Ratio IC50 [9]: 1.2; Ratio IC50 (A549 [10]): 1.6; IC50 [11]: 9.36 nM; IC50 [12]: 8.91 nM; IC50 [13]: 529 nM
COc1cc2c(Oc3ccc(NC(=O)c4cn(-c5ccccc5)nn4)cc3F)ccnc2cc1OCCCN1CCCCC1	100 nM	180 nM	130 nM	210 nM	–

Structure (SMILES)	IC50 [1]	IC50 (HT-29 [2])	IC50 (A549 [3])	IC50 [4]	further results
COc1cc2c(Oc3ccc(NC(=O)c4cn(-c5ccccc5)nn4)cc3F)ccnc2cc1OCCCN1CCOCC1	110 nM	350 nM	720 nM	450 nM	–
COc1cc2c(Oc3ccc(NC(=O)c4cn(-c5ccccc5F)nn4)cc3F)ccnc2cc1OCCCN1CCC(C)CC1	130 nM	210 nM	250 nM	190 nM	–
COc1cc2c(Oc3ccc(NC(=O)c4cn(-c5c(C)cccc5C)nn4)cc3F)ccnc2cc1OCCCN1CCOCC1	–	6140 nM	–	4320 nM	–
COc1cc2c(Oc3ccc(NC(=O)c4cn(-c5ccccc5Cl)nn4)cc3F)ccnc2cc1OCCCN1CCC(C)CC1	240 nM	130 nM	370 nM	230 nM	–
COc1cc2c(Oc3ccc(NC(=O)c4cn(-c5ccccc5C)nn4)cc3F)ccnc2cc1OCCCN1CCCCC1	3250 nM	1340 nM	3230 nM	2100 nM	–
COc1cc2c(Oc3ccc(NC(=O)c4cn(-c5ccccc5Cl)nn4)cc3F)ccnc2cc1OCCCN1CCN(C)CC1	70 nM	160 nM	150 nM	290 nM	–
COc1cc2c(Oc3ccc(NC(=O)c4cn(-c5ccc(Br)cc5)nn4)cc3F)ccnc2cc1OCCCN1CCCC1	120 nM	190 nM	370 nM	200 nM	–
COc1cc2c(Oc3ccc(NC(=O)c4cn(-c5c(C)cccc5C)nn4)cc3F)ccnc2cc1OCCCN1CCN(C)CC1	–	2170 nM	2180 nM	4540 nM	–
COc1cc2c(Oc3ccc(NC(=O)c4cn(-c5ccc(Br)cc5)nn4)cc3F)ccnc2cc1OCCCN1CCCCC1	150 nM	260 nM	230 nM	360 nM	–
COc1cc2c(Oc3ccc(NC(=O)c4cn(-c5c(C)cccc5C)nn4)cc3F)ccnc2cc1OCCCN1CCCC1	3490 nM	2240 nM	1240 nM	1560 nM	–
COc1cc2c(Oc3ccc(NC(=O)c4cn(-c5ccc(F)c(F)c5)nn4)cc3F)ccnc2cc1OCCCN1CCN(C)CC1	160 nM	430 nM	200 nM	250 nM	–
COc1cc2c(Oc3ccc(NC(=O)c4cn(-c5ccccc5C)nn4)cc3F)ccnc2cc1OCCCN1CCN(C)CC1	–	1430 nM	3100 nM	3650 nM	–
COc1cc2c(Oc3ccc(NC(=O)c4cn(-c5ccc(F)c(F)c5)nn4)cc3F)ccnc2cc1OCCCN1CCCCC1	310 nM	210 nM	220 nM	250 nM	–
COc1cc2c(Oc3ccc(NC(=O)c4cn(-c5ccccc5)nn4)cc3F)ccnc2cc1OCCCN1CCC(C)CC1	90 nM	190 nM	140 nM	210 nM	–
COc1cc2c(Oc3ccc(NC(=O)c4cn(-c5ccccc5)nn4)cc3F)ccnc2cc1OCCCN1CCN(C)CC1	60 nM	180 nM	160 nM	200 nM	–
